Results: patent US11905268B2, “Anthranilic acid derivatives and their use in the treatment of human cancers” (UNIVERSITY OF CENTRAL FLORIDA RESEARCH FOUNDATION, INC., priority 2018, dated 2024)
Read-outs that look alike come from different tables or passages of the source.

What was measured:
[1] = system: DFMO treated Chinese hamster ovary (CHO) cells; assay: DFMO/spermidine rescue assay in CHO cells (Assay 2); format: cell-based; conditions: for Active in DFMO assay?: Table 3, in CHO; for DFMO/CHO IC50: Table 5B
Procedure: In the reconfirmation assay compounds were run in quadruplicate. […] A PTI compound is expected to block the entry or disrupt the intracellular trafficking of spermidine and inhibit the ability of spermidine to rescue the growth or viability of DFMO treated cells.
DFMO/Spermidine assay Here cells were treated with an inhibitor of polyamine biosynthesis (DFMO) and rescued back to high viability by the presence of exogenous polyamine (spermidine). Putative PTI compounds were screened for their ability to block the entry or intracellular trafficking of exogenous spermidine (or otherwise disrupt the intracellular trafficking of spermidine) by measuring cell viability in the presence of DFMO+spermidine+PTI compound. […] This was followed by adding 10 μL of […] and 5 μM spermidine (FAC 5 mM DFMO and 1 μM spermidine) in assay medium with a Beckman BioRAPTR FRD dispenser or 10 μL of 5 mM DFMO added in assay medium (positive control). […] A PTI compound is expected to block the entry or disrupt the intracellular trafficking of spermidine and inhibit the ability of spermidine to rescue the growth or viability of DFMO treated cells Cytotoxicity

CHO cells [2] = assay: Cytotoxicity screen in CHO cells; conditions: for IC50 at 48 h: Chinese hamster, CHO K1 cells; for tox (DFMO Assay) / Tox (Ant44): toxic above the stated concentration; for tox (DFMO Assay): listed with DFMO assay; for Tox (Ant44): listed with Ant44 assay
Procedure: CHO K1 cells were grown in growth medium to 70% confluency and washed in PBS and trypsinized. […] Cells were spun at 100×g for 1 minute and incubated at 37° C. in a humidified CO2 incubator for 24 hours. […] Cellular ATP content was then assayed by adding 3 uL of ATPLite with a Beckman BioRAPTR FRD dispenser and incubated for 10 minutes at room temperature. Plates were spun at 200×g for 1 minute and read on a Perkin Elmer Viewlux multimode plate reader using luminescence mode. This assay was used for testing dose-response of dry powders.
CHO K1 cells were grown in growth medium to 70% confluency and washed in PBS and trypsinized. Cells were plated in assay medium at 10000 cells/mL for 200 cells per well using a Thermo Multidrop Combi in 20 uL into a white Greiner plate. Cells were spun at 100×g for 1 minute and incubated at 37° C. in a humidified CO2 incubator for 24 hours. […] This was followed by adding by 10 μL of assay medium to all wells with a Beckman BioRAPTR FRD dispenser. The plates were spun at 200×g for 1 minute and incubated at 37° C. in a humidified 5% CO2 incubator for 48 hours. Cellular ATP content was then assayed by adding 20 μL of ATPLite with a Beckman BioRAPTR FRD dispenser and incubated for 10 min at room temperature. Plates were spun at 200×g for 1 minute and read on a Perkin Elmer Envision for multimode plate reader using luminescence mode. Duplicates were run for each compound concentration, and the curves represent the average of the duplicates as percent viability.
The final compound concentration was either 20 μM or 10 μg/mL (depending upon the compound source). A successful PTI in Assay 1 would block the uptake of the toxic Ant44 probe and rescue the cells back to >90% relative growth vs an untreated control. It was critical to also evaluate the toxicity of the PTI by itself as a toxic PTI would give a false negative in Assay1 (and a false positive in Assay 2). […] Assay 2 then evaluated the ability of the compound to inhibit the uptake of a rescuing dose of Spermidine (Spd, 1 μM) into DFMO-treated CHO cells.

CHO cells [3] = assay: Ant44 rescue assay in CHO cells (Assay 1); format: cell-based, Chinese hamster; conditions: for IC50 / EC50: Cricetulus griseus; for Ant44 EC40: Table 1
Procedure: CHO K1 cells were grown in growth medium (RPMI+10% FBS+1×P/S+1% l-glutamine) to 70% confluency, washed in PBS and trypsinized. Cells were plated in assay medium (serum free RPMI+2% FBS+1×l-glutamine+1×P/S+[…] aminoguanidine) at 50000 cells/mL for 200 cells per well in 4 ul using a Thermo Multidrop Combi into a 1536-well white Aurora plate.
Ant44 is a cytotoxic polyamine, i.e., N^1-(9-anthracenyl)-homospermidine. A non-toxic PTI compound would block entry or intracellular trafficking of the Ant44 toxin and rescue the cells back to high viability. Therefore, this screen tested for compounds which rescued cells from Ant44 toxicity. […] This was followed by adding 10 uL of 10 uM Ant44 (FAC 2 uM) in assay medium with a Beckman BioRAPTR FRD dispenser or 10 uL of cells added in assay medium (positive control).

[4] = Cricetulus griseus, CHO, Table 7, read-out: SAR IC50 DFMO assay
[5] = Cricetulus griseus, Table 1 HTS top hits, CHO cells, read-out: DFMO Assay IC50
[6] = CHO, Table 7, read-out: SAR IC50 Ant44 assay
[7] = Table 1 HTS top hits, CHO cells
[8] = Table 1 HTS top hits, CHO cells, read-out: Ant44 EC50
[9] = CHO, Table 3, read-out: Ant44 rescue EC50 CHO
[10] = Table 5B, CHO cells, read-out: Ant44 IC50

Row | Structure (SMILES) | IC50 [1, 4] | IC50 [1, 5] | IC50 at 48 h (CHO cells [2]) | tox (DFMO Assay) (CHO cells [2]; CHO cells) | IC50 (CHO cells [3]; [6]) | Ant44 EC50 (CHO cells [3]; [7]) | Tox (Ant44) (CHO cells [2]; CHO cells) | EC50 (CHO cells [3]; [8]) | further results
1 | Cc1ccc(C(=O)Nc2ccc(N3CCN(c4cc(Cl)ccc4C)CC3)c(C(=O)O)c2)cc1 [SBI-0800669] | 5 µM | 2 to 5 µM | 12 µM | > 10 µM | > 40 µM | SBI- 0800669.0001 No effect |  |  | 
2 | COc1ccc(C(=O)Nc2ccc(N3CCN(c4ccccc4Cl)CC3)cc2C(=O)O)cc1 [SBI-0800682] | 27 µM | 10 to 15 µM | 28 µM | > 10 µM | > 40 µM |  | > 20 µM |  | Ant44 EC40 (CHO cells [3]; CHO cells): ~15 µM
3 | COc1ccccc1C(=O)Nc1ccc(N2CCN(c3cc(Cl)ccc3C)CC2)cc1C(=O)O [SBI-0351221, 5-(4-(5-chloro-2-methylphenyl)piperazin-1-yl)-2-(2-methoxybenzamido)benzoic acid] | 21 µM | ~10 µM | 19 µM | SBI- 0351221.0002 (IC50 ~10), toxic >10 μM | 2 µM |  | SBI- 0351221.0002 (10 EC50) Tox >10 μM | 10 µM | 
4 | COc1ccccc1N1CCN(c2ccc(NC(=O)c3cccs3)cc2C(=O)O)CC1 [SBI-0800666] | 27 µM | 20 to 32 µM | > 40 µM |  | > 40 µM | SBI- 0800666.0001 No effect |  |  | 
5 | CCN(CC)C(=O)CN1CCN(c2ccc(NC(=O)c3ccc(OC)cc3)c(C(=O)O)c2)CC1 [SBI-0800690] | > 40 µM | ~20 µM | 28 µM | SBI- 0800690.0001 (IC50 ~20, tox >20) μM | > 40 µM | SBI- 0800690.0001 No effect |  |  | 
6 | Cc1ccc(CC(=O)Nc2ccc(N3CCN(c4ccccc4Cl)CC3)cc2C(=O)O)cc1 [SBI-0800675] | 32 µM | > 25 µM | > 40 µM | no tox | 16 µM |  | SBI- 0800675.0001 (31 EC50) Tox >31 μM | 31 µM | 
7 | COc1ccccc1C(=O)Nc1ccc(N2CCN(CCCc3ccccc3)CC2)cc1C(=O)O [SBI-0814416, 2-(2-methoxybenzamido)-5-(4-(3-phenylpropyl)piperazin-1-yl)benzoic acid] | > 40 µM |  | > 40 µM |  | > 40 µM |  |  |  | 
8 | COc1ccc(C(=O)Nc2ccc(N3CCN(c4ccc(OC)cc4)CC3)cc2C(=O)O)cc1 [SBI-0800680] | > 40 µM | > 31 µM | > 40 µM | no tox | > 40 µM |  | ~5 µM | 31 µM | 
9 | COc1ccccc1C(=O)Nc1ccc(N2CCN(c3ccccn3)CC2)cc1C(=O)O [SBI-0801308, 2-(2-methoxybenzamido)-5-(4-(pyridin-2-yl)piperazin-1-yl)benzoic acid] | > 40 µM | 10 to 20 µM | 21 µM | > 20 µM | 4 µM |  | > 31 µM | 5 to 10 µM | Active in DFMO assay? [1]: No in CHO; DFMO/CHO IC50 [1]: trace; CHO MTD EC50 (CHO cells [2]; hamster): (22) uM; MTD CHO (CHO cells [2]; hamster): ~10 µM; EC50 (CHO cells [3]; [9]): 10 µM; IC50 (CHO cells [3]; [10]): 3.6 µM
10 | COc1ccc(C(=O)Nc2ccc(N3CCN(c4cccc(C)c4C)CC3)cc2C(=O)O)cc1 [SBI-0800686] |  | ~5 µM |  | SBI- 0800686.0001 (IC50 ~5, tox >5) μM |  |  | SBI- 0800686.0001 Tox >10, EC50 near 10 μM | ~10 µM | 
11 | COc1ccc(C(=O)Nc2ccc(N3CCN(c4ccccc4)CC3)cc2C(=O)O)cc1 [SBI-0800679] | 15 µM | 10 to 15 µM |  | > 15 µM | > 40 µM |  | SBI- 0800679.0001 EC40 near 20 μM, Tox >20 μM) |  | activity in DFMO assay ([1]; CHO cells): active; EC50 ([1]; Cricetulus griseus, CHO, Table 2): 10 µM; IC50 ([1]; Cricetulus griseus, CHO, Table 4B, read-out: DFMO/CHO IC50): 15 µM; general toxicity (CHO cells [2]; CHO cells): modest level of toxicity; CHO MTD (CHO cells [2]; hamster): 10 µM; CHO MTD EC50 (CHO cells [2]; hamster): (17) μM; EC50 (CHO cells [3]; CHO, Table 2, Active in Ant44 assay?, read-out: Ant44 assay EC50 in CHO): > 10 µM; Ant44 EC40 (CHO cells [3]; CHO cells): SBI- 0800679.0001 EC40 near 20 μM, Tox >20 μM); Active in Ant44 assay? (CHO cells [3]; Table 2, in CHO): Yes; Ant44 IC50 (CHO cells [3]; Table 4B, CHO cells): trace
12 | COc1ccc(C(=O)Nc2ccc(N3CCC(C(N)=O)CC3)cc2C(=O)O)cc1 [SBI-0800693] | > 40 µM | ~10 µM |  | SBI- 0800693.0001 (Ic50 ~10 μM, tox >10 μM) | > 40 µM | SBI- 0800693.0001 (NO EFFECT) |  |  | 
13 | COc1ccc(C(=O)Nc2ccc(N3CCN(c4ccc(C(C)=O)cc4)CC3)cc2C(=O)O)cc1 [SBI-0800674] | 21 µM | ~5 µM | 20 µM | > 10 µM | > 40 µM | no effect | > 5 µM |  | 
14 | COc1ccc(C(=O)Nc2ccc(N3CCCN(c4ncccn4)CC3)cc2C(=O)O)cc1 [SBI-0800691] | > 40 µM |  | > 40 µM | No tox | 12 µM |  | No tox | 10 to 15 µM | DFMO Assay IC50 [1, 7]: No effect; Active in DFMO assay? [1]: No in CHO; DFMO/CHO IC50 [1]: trace; MTD CHO (CHO cells [2]; hamster): >32 µM; activity in Ant44 assay (CHO cells [3]; CHO cells): robust Ant44 uptake inhibition activity; EC50 (CHO cells [3]; [9]): ~11 µM; IC50 (CHO cells [3]; [10]): 12 µM
